This test concerns the target T1, human PPARα (Homo sapiens, UniProt Q07869).
T1 construct: expressed in transfected cells; host or cells: HEK cells (human embryo kidney), stably transfected with pcDNA3-GR-GAL4-humanPPARα and the luciferase reporter pdeltaMG4LZ
T1 sequence (Q07869 167-468): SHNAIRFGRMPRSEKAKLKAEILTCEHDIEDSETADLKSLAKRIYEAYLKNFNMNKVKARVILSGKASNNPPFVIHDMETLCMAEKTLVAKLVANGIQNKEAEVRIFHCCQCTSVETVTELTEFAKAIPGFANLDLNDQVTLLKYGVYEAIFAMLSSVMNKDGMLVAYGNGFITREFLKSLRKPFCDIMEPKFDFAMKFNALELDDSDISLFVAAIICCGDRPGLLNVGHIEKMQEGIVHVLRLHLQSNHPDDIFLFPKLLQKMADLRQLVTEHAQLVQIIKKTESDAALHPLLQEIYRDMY
The test is described as follows: PPARα reporter cell line assay (stably transfected HEK cells, GR-GAL4-PPARα fusion protein, firefly luciferase reporter). As to conditions: agonist activity in HEK PPARα reporter cell line; 24 h incubation; luciferase luminescence. It counts as cell-based. An excerpt:
To analyze the effectiveness of substances which bind to human PPARα, activating it in agonistic manner, a stable transfected HEK cell line (HEK=human embryo kidney) designated here as “PPARα reporter cell line” is used. It contains two genetic elements, a firefly luciferase reporter element and a PPARα fusion protein (GR-GAL4-PPARα) which controls the expression of the firefly luciferase reporter element in a PPARα ligand dependent way.
The PPARα reporter cell line was established in two steps: First, the firefly luciferase reporter element was constructed and stably transfected into HEK cells. Five DNA binding sites for the yeast transcription factor GAL4 (five repetitions of the sequence 5′-CGGAGTACTGTCCTCCGAG-3′) (SEQ ID NO:1) were cloned 5′ upstream of a 68 bp minimal RNA polymerase II promoter from the GR mouse mammary tumor virus long terminal repeat (accession # V01175) providing a CCAAT-box as well as a TATA-element. Cloning and sequencing was done as described by Sambrook J. et. al. (Molecular cloning, Cold Spring Harbor Laboratory Press, 1989). The complete Photinus pyralis luciferase gene (accession # M 15077) was cloned 3′ downstream of the GAL4 binding sites and the MMTV minimal promoter. The firefly luciferase reporter element consisting of 5 GAL4 binding sites, the MMTV minimal promoter and the full length luciferase gene was recloned into a plasmid backbone harboring a Zeozin resistence gene leading to plasmid “pdeltaMG4LZ”. This vector was transfected in HEK cells as described by Ausubel, F. M. et al. (Current protocols in molecular biology, Vol. 1-3, John Wiley & Sons, Inc., 1995). Stable clones have been selected using Zeozin as a selection agent (0.5 mg/ml).
In a second step, the PPARα fusion protein (GR-GAL4-PPARα) that controls expression of the firefly luciferase reporter element, was stably integrated in this cell background. For this purpose the cDNAs coding for the N-terminal 76 amino acids of the human glucocorticoid receptor (“GR”, accession # P04150) have been linked to amino acids 1-147 of the yeast GAL4-protein (accession # P04386) followed by the ligand binding domain of humanPPARα (amino acids S167-Y468, accession # S74349). The GR-GAL4-human PPARα construct was cloned into plasmid pcDNA3 (Invitrogen) were its expression is driven constitutively by the Cytomegalovirus promoter. The plasmid pcDNA3-GR-GAL4-humanPPARα was transfected in a stable HEK-cell clone that already contained the firefly luciferase reporter element described above. A double-transfected cell line containing both, the firefly luciferase reporter element as well as the GR-GAL4-humanPPARα fusion protein, has been selected on medium supplemented with Zeozin (0.5 mg/ml) and G418 (0.5 mg/ml).
The activity of PPARα agonists is determined in a three day test, described below:
The PPARα reporter cell line is cultivated up to 80% confluence in DMEM medium (# 41965-039, Life Technologies) with the following additives: 10% cs-FCS (fetal calf serum, #SH-30068.03, Hyclone), antibiotics (0.5 mg/ml of zeozin [#R250-01, Invitrogen], 0.5 mg/ml of G418 [#10131-019, Life Technologies], 1% penicillin streptomycin solution [#15140-031, Life Technologies]) and 2 mM of L-glutamine (#25030-032, Life Technologies). Cultivation is carried out in standard cell culture bottles (# 33111, Becton Dickinson) in a cell culture incubator at 37° C. and 5% CO2. The 80% confluent cells are washed once with 30 ml of PBS (#14190-094, Life Technologies), treated with 2 ml of trypsin solution (#25300-054, Life Technologies) at 37° C. for 2 min, taken up in 5 ml of the medium described above and counted in a cell counter. After dilution to 500,000 cells/ml, in each case 35,000 cells are sown into each well of a 96-well microtiter plate having a clear plastic bottom (#3610, Coming Costar). The plates are incubated in a cell incubator at 37° C. and 5% CO2 for 24 h.
The PPARα agonists to be tested are dissolved in DMSO at a concentration of 10 mM. […]
On the technique in general: In a reporter assay the amount or activity of a reporter protein is the signal.

Molecules are shown by their SMILES.

As usually defined, the EC50 is the concentration giving half of the maximal effect. A low value points to an effect from little substance. Compound `Cc1cccc(CO[C@H]2CCC[C@@H](OCc3coc(-c4ccccc4)n3)C2)c1C(=O)O` (single isomer, unassigned) [VI, cis-2-Methyl-6-[3-(2-phenyloxazol-4-ylmethoxy)cyclohexyloxymethyl]benzoic acid] had an EC50 of 180 pM.

Take `Cc1cccc(CC[C@@H]2CCC[C@H](OCc3coc(-c4ccc(F)cc4)n3)C2)c1C(=O)O` (racemic) [XXVIII, rac-cis-2-(2-{3-[2-(4-Fluorophenyl)oxazol-4-ylmethoxy]cyclohexyl}ethyl)-6-methylbenzoic acid]: the EC50 came to 670 pM.

In turn, `Cc1cccc(-c2nc(CO[C@H]3CCC[C@@H](OCc4cccc(C)c4C(=O)O)C3)c(C)o2)c1` [LIII, 2-{1R,3S-3-[2-(3-Methylphenyl)-5-methyloxazol-4-ylmethoxy]cyclohexyloxymethyl}-6-methylbenzoic acid] had an EC50 of 400 pM.

Compound `Cc1cccc(COC[C@@H]2CCC[C@H](OCc3coc(-c4ccc(F)cc4)n3)C2)c1C(=O)O` (racemic) [XXV, rac-cis-2-{3-[2-(4-Fluorophenyl)oxazol-4-ylmethoxy]cyclohexylmethoxymethyl}-6-methylbenzoic acid] gave an EC50 of 1300 pM.

In the case of `Cc1ccc(-c2nc(CO[C@H]3CCC[C@@H](OCc4cccc(C)c4C(=O)O)C3)co2)cc1` (stereo in doubt) [VIII, cis-2-Methyl-6-[3-(2-p-tolyloxazol-4-ylmethoxy)cyclohexyloxymethyl]benzoic acid], the EC50 amounted to 40 pM.

`Cc1ccccc1-c1nc(CO[C@H]2CCC[C@@H](OCc3cccc(C)c3C(=O)O)C2)c(C)o1` [LVI, 2-{1R,3S-3-[2-(2-Methylphenyl)-5-methyloxazol-4-ylmethoxy]cyclohexyloxymethyl}-6-methylbenzoic acid] had a half-maximal effective concentration (EC50) of 540 pM.

Turning to `COc1ccc(-c2nc(CO[C@H]3CCC[C@@H](OCc4cccc(C)c4C(=O)O)C3)c(C)o2)cc1OC` [LVIII, 2-{1R,3S-3-[2-(3,4-Dimethoxyphenyl)-5-methyloxazol-4-ylmethoxy]cyclohexyloxymethyl}-6-methylbenzoic acid], the EC50 is 460 pM.

`COc1ccc(-c2nc(CO[C@@H]3CCC[C@H](OCc4cccc(C)c4C(=O)O)C3)c(C)o2)cc1` [LXV, 2-{1S,3R-3-[2-(4-Methoxyphenyl)-5-methyloxazol-4-ylmethoxy]cyclohexyloxymethyl}-6-methylbenzoic acid] gave an EC50 of 1100 pM.

For `Cc1cccc(CO[C@@H]2CCC[C@H](OCc3nc(-c4cccc(C#N)c4)oc3C)C2)c1C(=O)O` [LIX, 2-{1R,3S-3-[2-(3-Cyanophenyl)-5-methyloxazol-4-ylmethoxy]cyclohexyloxymethyl}-6-methylbenzoic acid], the EC50 stood at 620 pM.

On to `COc1cccc(-c2nc(CO[C@H]3CCC[C@@H](OCc4cccc(C)c4C(=O)O)C3)c(C)o2)c1` [IL, 2-{1R,3S-3-[2-(3-Methoxy-phenyl)-5-methyl-oxazol-4-ylmethoxy]-cyclohexyloxymethy}-6-methylbenzoic acid], for which a half-maximal response (EC50) required 520 pM.

With `Cc1cccc(CC[C@H]2CCC[C@H](OCc3coc(-c4ccc(F)cc4)n3)C2)c1C(=O)O` (racemic) [XXIX, rac-trans-2-(2-{3-[2-(4-Fluorophenyl)oxazol-4-ylmethoxy]cyclohexyl}ethyl)-6-methylbenzoic acid], the EC50 stood at 1400 pM.

`Cc1cccc(COC2C=CC(OCc3coc(-c4ccc(F)cc4)n3)C2)c1C(=O)O` (stereo not shown) [XIX, 2-{4-[2-(4-Fluorophenyl)oxazol-4-ylmethoxy]cyclopent-2-enyloxymethyl}-6-methylbenzoic acid]: the midpoint of the response, the EC50, lay at 16000 pM.

The compound `Cc1cccc(CO[C@@H]2CCC[C@H](OCc3nc(-c4ccccc4)oc3C)C2)c1C(=O)O` [Example LX, 2-Methyl-6-[1R,3S-3-(5-methyl-2-phenyloxazol-4-ylmethoxy)cyclohexyloxymethyl]benzoic acid] yielded an EC50 of 200 pM.

Regarding `Cc1cccc(CO[C@@H]2CCC[C@H](OCc3nc(-c4ccc(C(C)C)cc4)oc3C)C2)c1C(=O)O` [Example LXIX, 2-Methyl-6-[(1R,3S)-3-(5-methyl-2-(4-(2-propyl)-phenyl)-oxazol-4-ylmethoxy)-cyclohexyloxymethyl]-benzoic acid], the EC50 is 110 pM.

Compound `Cc1cccc(CO[C@@H]2CCC[C@H](OCc3nc(-c4cccc(OC(F)(F)F)c4)oc3C)C2)c1C(=O)O` [LVII, 2-{1R,3S-3-[2-(3-Trifluoromethoxyphenyl)-5-methyloxazol-4-ylmethoxy]cyclohexyloxymethyl}-6-methylbenzoic acid] gave an EC50 of 130 pM.

In turn, `Cc1cccc(CO[C@@H]2CCC[C@H](OCc3nc(-c4cccc(F)c4)oc3C)C2)c1C(=O)O` [XLVIII, 2-{1R,3S-3-[2-(3-Fluoro-phenyl)-5-methyl-oxazol-4-ylmethoxyl]-cyclohexyloxymethyl}-6-methylbenzoic acid] gave an EC50 of 250 pM.

In turn, `Cc1cccc(CO[C@@H]2CCC[C@H](OCc3coc(-c4ccc(F)cc4)n3)C2)c1C(=O)O` (relative stereo) [Example II, (+)-cis-2-(3-(2-(4-Fluorophenyl)oxazol-4-ylmethoxy)cyclohexyloxymethyl)-6-methylbenzoic acid] came in with an EC50 of 300 pM.

In the case of `Cc1cccc(CO[C@@H]2CCC[C@H](OCc3nc(-c4ccc(Cl)cc4)oc3C)C2)c1C(=O)O` [LII, 2-{1R,3S-3-[2-(4-Chlorophenyl)-5-methyloxazol-4-ylmethoxy]cyclohexyloxymethyl}-6-methylbenzoic acid], the concentration giving a half-maximal response (EC50) was found to be 100 pM.

In the case of `Cc1cccc(CO[C@@H]2CCC[C@H](OCc3nc(-c4cccc(Br)c4)oc3C)C2)c1C(=O)O` [LXVI, 2-{1R,3S-3-[2-(3-Bromophenyl)-5-methyloxazol-4-ylmethoxy]cyclohexyloxymethyl}-6-methylbenzoic acid], the EC50 turned out to be 480 pM.

In turn, `Cc1cccc(CO[C@H]2CCC[C@@H](OCc3nc(-c4ccc(F)cc4)oc3C)C2)c1C(=O)O` (stereo in doubt) [Example X, cis-2-{3-[2-(4-Fluorophenyl)-5-methyloxazol-4-ylmethoxy]cyclohexyloxymethyl}-6-methylbenzoic acid] displayed an EC50 of 500 pM.

`COc1ccc(-c2nc(CO[C@H]3CCC[C@@H](OCc4cccc(C)c4C(=O)O)C3)c(C)o2)cc1C` [LXXII, 2-[(1R,3S)-3-(2-(4-methoxy-3-methylphenyl)-5-methyl-oxazol-4-ylmethoxy)-cyclohexyloxymethyl]-6-methyl-benzoic acid] returned an EC50 of 240 pM.

Compound `Cc1cccc(CO[C@H]2CCC[C@@H](OCc3nc(-c4ccccc4)oc3C)C2)c1C(=O)O` [Example LXI, 2-Methyl-6-[1S,3R-3-(5-methyl-2-phenyloxazol-4-ylmethoxy)cyclohexyloxymethyl]benzoic acid] showed an EC50 of 10000 pM.

The record behind these values is patent US7399777B2, “Diarylcycloalkyl derivatives, processes for their preparation and their use as pharmceuticals” (Sanofi-Aventis Deutschland GmbH, priority 2001, dated 2008).
